Reference: US20240383915A1, “OXAZEPINE COMPOUNDS AND USES THEREOF IN THE TREATMENT OF CANCER” (Genentech, Inc., priority 2021, published 2024)

Legend:
[1] = molecular target: KRas(G12V) (Homo sapiens (Human), UniProt P01116, G12V); experiment: KRas(G12V) GDP HTRF (BODIPY-GDP exchange TR-FRET); format: biochemical
[2] = molecular target: KRas (Homo sapiens (Human), UniProt P01116); experiment: KRas GDP HTRF (BODIPY-GDP exchange TR-FRET); format: biochemical
Method in brief: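 Inhibition of SOS1-mediated exchange of BODIPY-GDP on KRAS G12D, started with 3 nM recombinant human SOS1 and 300 nM BODIPY-GDP and read after 60 min. TR-FRET excitation 337 nm, ratio 520/490 nm ×10,000. IC50 from 4-parameter Hill fit of normalized data.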

[3] = test system: SW480 cells; experiment: SW480 proliferation assay; format: cell-based; conditions: Homo sapiens, SW480, SW480; read-out: SW480 Prolif IC50 (G12V)
[4] = test system: PC-9 cells; experiment: PC9 proliferation assay; format: cell-based, human; conditions: Homo sapiens, PC-9, PC9; read-out: PC9 Prolif IC50 (G12V)

Chain of KRas(G12V) (P01116-2 other isoform, or with tags, fused parts or gaps G12V): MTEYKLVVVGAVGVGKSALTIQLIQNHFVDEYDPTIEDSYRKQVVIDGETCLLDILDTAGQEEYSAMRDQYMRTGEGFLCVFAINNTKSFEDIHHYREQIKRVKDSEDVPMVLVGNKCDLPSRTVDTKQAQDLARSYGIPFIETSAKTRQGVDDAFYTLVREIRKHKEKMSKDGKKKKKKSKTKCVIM
Chain of KRas (P01116-2 other isoform, or with tags, fused parts or gaps): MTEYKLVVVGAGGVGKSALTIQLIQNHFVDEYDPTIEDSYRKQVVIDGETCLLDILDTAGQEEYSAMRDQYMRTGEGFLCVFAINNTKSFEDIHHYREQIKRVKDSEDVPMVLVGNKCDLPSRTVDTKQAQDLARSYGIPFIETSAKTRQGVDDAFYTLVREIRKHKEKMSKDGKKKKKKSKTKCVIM

| Compound | IC50 [1] [nM] | IC50 [2] [nM] | IC50 [3] [nM] | IC50 [4] [nM] |
| --- | --- | --- | --- | --- |
| Cc1cc(N)nc(-c2c(Cl)c3c4c(nc(OC[C@@]56CCN5CC(F)(F)C6)nc4c2F)N([C@H](C)c2ccnnc2N)CCO3)c1C(F)(F)F (atropisomer, axis not shown) [Example 77a, 4-((R)-1-((R)-9-(6-amino-4-methyl-3-(trifluoromethyl)pyridin-2-yl)-8-chloro-2-(((S)-3,3-difluoro-1-azabicyclo[3.2.0]heptan-5-yl)methoxy)-10-fluoro-5,6-dihydro-4H-[1,4]oxazepino[5,6,7-de]quinazolin-4-yl)ethyl)pyridazin-3-amine] | 0.12 | 0.33 | 21 | 20000 |
| CN1CCOc2c(Cl)c(-c3cccc4sc(N)nc34)cc3nc(OC[C@@]45CCCN4C[C@H](F)C5)nc1c23 [Example 23, 4-(8-chloro-2-(((2R,7aS)-2-fluorotetrahydro-1H-pyrrolizin-7a(5H)-yl)methoxy)-4-methyl-5,6-dihydro-4H-[1,4]oxazepino[5,6,7-de]quinazolin-9-yl)benzo[d]thiazol-2-amine] | 5.1 | 29 | 5100 | 10000 |
| Cc1cc(N)nc(-c2c(Cl)c3c4c(nc(OC[C@@]56CCCN5C[C@H](F)C6)nc4c2F)N([C@@H]2CCCc4ccnc(N)c42)CCO3)c1C(F)(F)F (atropisomer, axis not shown; (aS)) [Example 65a, (R)-8-((R)-9-(6-amino-4-methyl-3-(trifluoromethyl)pyridin-2-yl)-8-chloro-10-fluoro-2-(((2R,7aS)-2-fluorotetrahydro-1H-pyrrolizin-7a(5H)-yl)methoxy)-5,6-dihydro-4H-[1,4]oxazepino[5,6,7-de]quinazolin-4-yl)-5,6,7,8-tetrahydroisoquinolin-1-amine] | 0.1 | 0.25 | 2.6 | 940 |
| Cc1cc(N)nc(-c2cc3ncnc4c3c(c2Cl)OCCN4Cc2cncnc2N)c1C(F)(F)F [Example 26, 5-((9-(6-amino-4-methyl-3-(trifluoromethyl)pyridin-2-yl)-8-chloro-5,6-dihydro-4H-[1,4]oxazepino[5,6,7-de]quinazolin-4-yl)methyl)pyrimidin-4-amine] | 53 | 330 | 9700 | 16000 |
| Cc1cc(N)nc(-c2c(Cl)c3c4c(nc(OC[C@@]56CCCN5C[C@]5(CC5(F)F)C6)nc4c2F)N([C@H](C)c2cccnc2N)CCO3)c1C(F)(F)F (atropisomer, axis not shown) [Example 111a, 6-((R)-4-((R)-1-(2-aminopyridin-3-yl)ethyl)-8-chloro-2-(((1R,7a′S)-2,2-difluorodihydro-1′H,3′H-spiro[cyclopropane-1,2′-pyrrolizin]-7a′(5′H)-yl)methoxy)-10-fluoro-5,6-dihydro-4H-[1,4]oxazepino[5,6,7-de]quinazolin-9-yl)-4-methyl-5-(trifluoromethyl)pyridin-2-amine] | 0.36 | 0.85 | 1.8 | 7400 |
| C=C1CN2CCC[C@@]2(COc2nc3c4c(c(Cl)c(-c5cc(O)cc6ccccc56)cc4n2)OCCN3C)C1 [Example 59, (S)-4-(8-chloro-4-methyl-2-((2-methylenetetrahydro-1H-pyrrolizin-7a(5H)-yl)methoxy)-5,6-dihydro-4H-[1,4]oxazepino[5,6,7-de]quinazolin-9-yl)naphthalen-2-ol] | 57 | 270 | 7100 | 5800 |
| CC(=O)N1CCN2[C@H](COc3nc4c5c(c(Cl)c(-c6nc(N)cc(C)c6C(F)(F)F)c(F)c5n3)OCCN4[C@H](C)c3cccnc3N)CC[C@H]2C1 (atropisomer, axis not shown; (aS)) [Example 123a, 1-((6S,8aS)-6-((((R)-9-(6-amino-4-methyl-3-(trifluoromethyl)pyridin-2-yl)-4-((R)-1-(2-aminopyridin-3-yl)ethyl)-8-chloro-10-fluoro-5,6-dihydro-4H-[1,4]oxazepino[5,6,7-de]quinazolin-2-yl)oxy)methyl)hexahydropyrrolo[1,2-a]pyrazin-2(1H)-yl)ethan-1-one] | 0.13 | 0.15 | 30 | 6500 |
| Cc1cc(N)nc(-c2c(Cl)c3c4c(nc(OC[C@H]5CC[C@@H]6COCCN65)nc4c2F)N([C@H](C)c2cccnc2N)CCO3)c1C(F)(F)F (atropisomer, axis not shown; (aR)) [Example 87b, 6-((R)-4-((R)-1-(2-aminopyridin-3-yl)ethyl)-8-chloro-10-fluoro-2-(((6R,8aR)-hexahydro-1H-pyrrolo[2,1-c][1,4]oxazin-6-yl)methoxy)-5,6-dihydro-4H-[1,4]oxazepino[5,6,7-de]quinazolin-9-yl)-4-methyl-5-(trifluoromethyl)pyridin-2-amine] | 0.089 | 0.18 | 28 | 3100 |
| Cc1cc(N)nc(-c2cc3ncnc4c3c(c2Cl)OCCN4CCn2ccccc2=O)c1C(F)(F)F [Example 51, 1-(2-(9-(6-amino-4-methyl-3-(trifluoromethyl)pyridin-2-yl)-8-chloro-5,6-dihydro-[1,4]oxazepino[5,6,7-de]quinazolin-4-yl)ethyl)pyridin-2(1H)-one] | 9500 | 12000 | 20000 | 20000 |
| Cc1cc(N)nc(-c2c(Cl)c3c4c(nc(OCC5CCOCC5)nc4c2F)N([C@H](C)c2cccnc2N)CCO3)c1C(F)(F)F (atropisomer, axis not shown) [Example 152, 6-((R)-4-((R)-1-(2-aminopyridin-3-yl)ethyl)-8-chloro-10-fluoro-2-((tetrahydro-2H-pyran-4-yl)methoxy)-5,6-dihydro-4H-[1,4]oxazepino[5,6,7-de]quinazolin-9-yl)-4-methyl-5-(trifluoromethyl)pyridin-2-amine] | 0.75 | 2.3 | 180 | 5600 |
| CNc1cnc(N)c([C@@H](C)N2CCOc3c(Cl)c(-c4nc(N)cc(C)c4C(F)(F)F)c(F)c4nc(OC[C@@]56CCCN5C[C@H](F)C6)nc2c34)c1 (atropisomer, axis not shown; (aS)) [Example 79, 3-((R)-1-((R)-9-(6-amino-4-methyl-3-(trifluoromethyl)pyridin-2-yl)-8-chloro-10-fluoro-2-(((2R,7aS)-2-fluorotetrahydro-1H-pyrrolizin-7a(5H)-yl)methoxy)-5,6-dihydro-4H-[1,4]oxazepino[5,6,7-de]quinazolin-4-yl)ethyl)-N^5-methylpyridine-2,5-diamine] | 0.22 | 0.34 | 2.4 | 3100 |
| Nc1ncccc1CN1CCOc2c(Cl)c(-c3cccc4ccccc34)cc3nc(OC[C@@]45CCCN4C[C@H](F)C5)nc1c23 [Example 62, 3-((8-chloro-2-(((2R,7aS)-2-fluorotetrahydro-1H-pyrrolizin-7a(5H)-yl)methoxy)-9-(naphthalen-1-yl)-5,6-dihydro-4H-[1,4]oxazepino[5,6,7-de]quinazolin-4-yl)methyl)pyridin-2-amine] | 12 | 96 | 4900 | 3400 |
| COc1nc2c3c(c(Cl)c(-c4nc(N)cc(C)c4C(F)(F)F)c(F)c3n1)OCCN2[C@H](C)c1cccnc1N (atropisomer, axis not shown) [Example 155, 6-((R)-4-((R)-1-(2-aminopyridin-3-yl)ethyl)-8-chloro-10-fluoro-2-methoxy-5,6-dihydro-4H-[1,4]oxazepino[5,6,7-de]quinazolin-9-yl)-4-methyl-5-(trifluoromethyl)pyridin-2-amine] | 0.45 | 2.5 | 220 | 10000 |
| Cc1cc(N)nc(-c2c(Cl)c3c4c(nc(OCCn5cccn5)nc4c2F)N([C@H](C)c2cccnc2N)CCO3)c1C(F)(F)F (atropisomer, axis not shown) [Example 136, 6-((R)-2-(2-(1H-pyrazol-1-yl)ethoxy)-4-((R)-1-(2-aminopyridin-3-yl)ethyl)-8-chloro-10-fluoro-5,6-dihydro-4H-[1,4]oxazepino[5,6,7-de]quinazolin-9-yl)-4-methyl-5-(trifluoromethyl)pyridin-2-amine] | 0.21 | 0.83 | 63 | 8600 |
| C=C1CN2CCC[C@@]2(COc2nc3c4c(c(Cl)c(-c5nc(N)cc(C)c5C(F)(F)F)c(F)c4n2)OCCN3C)C1 [Example 40] | 0.99 | 4.6 | 1200 | 2100 |
| Cc1cc(N)nc(-c2c(Cl)c3c4c(nc(OC[C@H]5C[C@@H](O)C5)nc4c2F)N([C@H](C)c2cccnc2N)CCO3)c1C(F)(F)F (atropisomer, axis not shown) [Example 146, (1S,3s)-3-((((R)-9-(6-amino-4-methyl-3-(trifluoromethyl)pyridin-2-yl)-4-((R)-1-(2-aminopyridin-3-yl)ethyl)-8-chloro-10-fluoro-5,6-dihydro-4H-[1,4]oxazepino[5,6,7-de]quinazolin-2-yl)oxy)methyl)cyclobutan-1-ol] | 0.61 | 1.5 | 510 | 19000 |
| C=C1CN2CCC[C@@]2(COc2nc3c4c(c(Cl)c(-c5nc(N)cc(C)c5C(F)(F)F)c(F)c4n2)OCCN3[C@H](C)c2cccnc2N)C1 (atropisomer, axis not shown) [Example 116, 6-((R)-4-((R)-1-(2-aminopyridin-3-yl)ethyl)-8-chloro-10-fluoro-2-(((S)-2-methylenetetrahydro-1H-pyrrolizin-7a(5H)-yl)methoxy)-5,6-dihydro-4H-[1,4]oxazepino[5,6,7-de]quinazolin-9-yl)-4-methyl-5-(trifluoromethyl)pyridin-2-amine] | 0.074 | 0.0519 | 4.6 | 1600 |
